Data on 1 substance can be found in patent US11976280B2, “SMAC/Diablo inhibitors useful for treating cancer” (THE NATIONAL INSTITUTE FOR BIOTECHNOLOGY IN THE NEGEV LTD., priority 2017, dated 2024).

d = 2'-deoxy (DNA); r = 2'-OH (RNA)

This series deals with A549 cells. Put plainly: Ki-67 positive cells, immunofluorescence staining. The format is cell-based, human. As to conditions: 50 nM.

For “si-hSMAC-A: siRNA to human SMAC/Diablo; sense 5′AAGCGGUGUUUCUCAGAAUUGtt3′ (SEQ ID NO:20), antisense 5′AACAAUUCUGAGAAACCCGCtt3′ (SEQ ID NO:21) (sense AAGCGGUGUUUCUCAGAAUUGTT; antisense AACAAUUCUGAGAAACCCGCTT; sense: sugars from the 5' end r21 d2, backbone not given here; antisense: sugars from the 5' end r20 d2, backbone not given here)”, the “decrease in Ki-67 positive cells” value is “about 85%”.
